{
  "source": "patent US11098058B2",
  "about": "“Bicyclic ketone compounds and methods of use thereof” (Genentech, Inc., priority 2017, dated 2021)",
  "note": "pKi: −log10 of the molar value.",
  "data": [
    {"target": "human RIP1 kinase domain (2-375) (Homo sapiens (Human), UniProt Q13546)", "sequence (Q13546 2-375)": "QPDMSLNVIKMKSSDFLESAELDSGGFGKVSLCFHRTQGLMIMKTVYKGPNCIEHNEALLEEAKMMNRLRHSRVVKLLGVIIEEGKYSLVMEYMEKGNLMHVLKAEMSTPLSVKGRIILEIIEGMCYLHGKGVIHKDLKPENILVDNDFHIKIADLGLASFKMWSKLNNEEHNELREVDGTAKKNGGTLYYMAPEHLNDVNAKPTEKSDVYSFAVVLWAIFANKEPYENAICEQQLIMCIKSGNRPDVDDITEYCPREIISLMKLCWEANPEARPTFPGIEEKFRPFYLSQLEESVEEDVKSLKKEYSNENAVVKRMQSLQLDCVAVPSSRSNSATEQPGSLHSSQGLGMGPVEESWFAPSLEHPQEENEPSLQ", "assay": "biochemical", "details": "RIP1 kinase inhibition, tight-binding apparent Ki, 50 nM enzyme, 50 μM ATP, 2 hours incubation", "experimental": "RIP1 Kinase Inhibition Assays (Biochemical Assay)\nThe ability of the receptor interacting protein kinase (RIPK1) to catalyze the hydrolysis of adenosine-5′-triphosphate (ATP) is monitored using the Transcreener ADP (adenosine-5′-diphosphate) assay (BellBrook Labs). Purified human RIP1 kinase domain (2-375) (50 nM) derived from a baculovirus-infected insect cell expression system is incubated with test compounds for 2 hours in 50 mM Hepes buffer (pH 7.5) containing 30 mM MgCl2, 1 mM dithiothreitol, 50 μM ATP, 0.002% Brij-35, and 0.5% dimethyl sulfoxide (DMSO). […] The tracer bound to the antibody is displaced by the ADP generated during the RIP1K reaction, which causes a decrease in fluorescence polarization that is measured by laser excitation at 633 nm with a FP microplate reader M1000. Fractional activity was plotted against test article concentration. Using Genedata Screener software (Genedata; Basel, Switzerland), the data were fit to the tight-binding apparent inhibition constant (Ki^app) Morrison equation [Williams, J. W. and Morrison, J. F. (1979) The kinetics of reversible tight-binding inhibition. […] The following equation was used to calculate fractional activity and Ki^app:\n[formula] where [E]T and [I]T are the total concentrations of active enzyme and test article, respectively.", "values": [
      {"smiles": "N#CC1CC1C(=O)c1nc2n(n1)[C@H](c1ccccc1)C[C@@H]2F", "note": "(mixture of isomers) [Example 86, 2-[rac-(5S,7S)-7-fluoro-5-phenyl-6,7-dihydro-5H-pyrrolo[1,2-b][1,2,4]triazole-2-carbonyl]-cyclopropanecarbonitrile]", "pKi": 6.80},
      {"smiles": "[2H][C@]1(Cl)C[C@@H](c2ccccc2)n2nc(C(=O)C3CC3)nc21", "note": "(racemic) [Example 119, cyclopropyl-[rac-(5S,7S)-7-chloro-7-deuterio-5-phenyl-5,6-dihydropyrrolo[1,2-b][1,2,4]triazol-2-yl]methanone]", "pKi": 7.44},
      {"smiles": "[2H][C@@]1(Cl)C[C@@H](c2ccccc2)n2nc(C(=O)C3CC3)nc21", "note": "(racemic) [Example 120, cyclopropyl-[rac-(5S,7R)-7-chloro-7-deuterio-5-phenyl-5,6-dihydropyrrolo[1,2-b][1,2,4]triazol-2-yl]methanone]", "pKi": 6.04},
      {"smiles": "CC(F)(F)[C@@H]1C[C@H](F)c2nc(C(=O)C3CC3)nn21", "note": "(racemic) [Example 122, cyclopropyl-[rac-(5S,7S)-5-(1,1-difluoroethyl)-7-fluoro-6,7-dihydro-5H-pyrrolo[1,2-b][1,2,4]triazol-2-yl]methanone]", "pKi": 6.44},
      {"smiles": "CCC1(C(=O)c2nc3n(n2)[C@H](c2ccccc2)C[C@@H]3F)CC1", "note": "(racemic) [Example 125, (1-ethylcyclopropyl)-[rac-(5S,7S)-7-fluoro-5-phenyl-6,7-dihydro-5H-pyrrolo[1,2-b][1,2,4]triazol-2-yl]methanone]", "pKi": 8.40},
      {"smiles": "O=C(c1nc2n(n1)[C@H](c1ccccc1)C[C@@H]2F)C1CCOCC1", "note": "(racemic) [Example 126, [rac-(5S,7S)-7-fluoro-5-phenyl-6,7-dihydro-5H-pyrrolo[1,2-b][1,2,4]triazol-2-yl]-tetrahydropyran-4-yl-methanone]", "pKi": 7.24},
      {"smiles": "O=C(c1nc2n(n1)[C@H](c1ccccc1)C[C@@H]2F)C1CCCOC1", "note": "(mixture of isomers) [Example 127, [rac-(5S,7S)-7-fluoro-5-phenyl-6,7-dihydro-5H-pyrrolo[1,2-b][1,2,4]triazol-2-yl]-tetrahydropyran-3-yl-methanone]", "pKi": 7.80},
      {"smiles": "O=C(c1nc2n(n1)[C@H](c1ccccc1)C[C@@H]2F)[C@H]1CCCN1", "note": "(racemic) [Example 128, [rac-(5S,7S)-7-fluoro-5-phenyl-6,7-dihydro-5H-pyrrolo[1,2-b][1,2,4]triazol-2-yl]-[rac-(2R)-pyrrolidin-2-yl]methanone]", "pKi": 6.19},
      {"smiles": "CC1(C(=O)c2nc3n(n2)[C@H](c2ccccc2)C[C@@H]3F)CCCO1", "note": "(mixture of isomers) [Example 129, (2-methyltetrahydrofuran-2-yl)-[rac-(5S,7S)-7-fluoro-5-phenyl-6,7-dihydro-5H-pyrrolo[1,2-b][1,2,4]triazol-2-yl]methanone]", "pKi": 7.33},
      {"smiles": "O=C(c1nc2n(n1)[C@H](c1ccccc1)C[C@@H]2F)C1CCOC1", "note": "(mixture of isomers) [Example 130, [rac-(5S,7S)-7-fluoro-5-phenyl-6,7-dihydro-5H-pyrrolo[1,2-b][1,2,4]triazol-2-yl]-tetrahydrofuran-3-yl-methanone]", "pKi": 8.10},
      {"smiles": "O=C(c1nc2n(n1)[C@H](c1ccccc1)C[C@@H]2F)[C@H]1CCOC1", "note": "(racemic) [Example 131, [rac-(5S,7S)-7-fluoro-5-phenyl-6,7-dihydro-5H-pyrrolo[1,2-b][1,2,4]triazol-2-yl]-[rac-(3S)-tetrahydrofuran-3-yl]methanone]", "pKi": "> 8.30"},
      {"smiles": "O=C(c1nc2n(n1)[C@H](c1ccccc1)C[C@@H]2F)[C@@H]1CCOC1", "note": "(racemic) [Example 132, [rac-(5S,7S)-7-fluoro-5-phenyl-6,7-dihydro-5H-pyrrolo[1,2-b][1,2,4]triazol-2-yl]-[rac-(3R)-tetrahydrofuran-3-yl]methanone]", "pKi": "> 8.30"},
      {"smiles": "COCC(C)(C)C(=O)c1nc2n(n1)[C@H](c1ccccc1)C[C@@H]2F", "note": "(racemic) [Example 133, 3-methoxy-2,2-dimethyl-1-[rac-(5S,7S)-7-fluoro-5-phenyl-6,7-dihydro-5H-pyrrolo[1,2-b][1,2,4]triazol-2-yl]propan-1-one]", "pKi": "> 8.30"},
      {"smiles": "O=C(c1nc2n(n1)[C@H](c1ccccc1)C[C@@H]2F)[C@H](O)C(F)(F)F", "note": "(racemic) [Example 134, rac-(2S)-3,3,3-trifluoro-2-hydroxy-1-[rac-(5S,7S)-7-fluoro-5-phenyl-6,7-dihydro-5H-pyrrolo[1,2-b][1,2,4]triazol-2-yl]propan-1-one]", "pKi": 6.66},
      {"smiles": "O=C(CC1CCCCO1)c1nc2n(n1)[C@H](c1ccccc1)C[C@@H]2F", "note": "(mixture of isomers) [Example 135, 1-[rac-(5S,7S)-7-fluoro-5-phenyl-6,7-dihydro-5H-pyrrolo[1,2-b][1,2,4]triazol-2-yl]-2-tetrahydropyran-2-yl-ethanone]", "pKi": 6.74},
      {"smiles": "O=C(CC1CCOCC1)c1nc2n(n1)[C@H](c1ccccc1)C[C@@H]2F", "note": "(racemic) [Example 136, 1-[rac-(5S,7S)-7-fluoro-5-phenyl-6,7-dihydro-5H-pyrrolo[1,2-b][1,2,4]triazol-2-yl]-2-tetrahydropyran-4-yl-ethanone]", "pKi": 7.49},
      {"smiles": "C[C@@]1(C(=O)c2nc3n(n2)[C@H](c2ccccc2)C[C@@H]3F)CCOC1", "note": "(racemic) [Example 137, [rac-(5S,7S)-7-fluoro-5-phenyl-6,7-dihydro-5H-pyrrolo[1,2-b][1,2,4]triazol-2-yl]-[rac-(3R)-3-methyltetrahydrofuran-3-yl]methanone]", "pKi": "> 8.30"},
      {"smiles": "C[C@]1(C(=O)c2nc3n(n2)[C@H](c2ccccc2)C[C@@H]3F)CCOC1", "note": "(racemic) [Example 138, [rac-(5S,7S)-7-fluoro-5-phenyl-6,7-dihydro-5H-pyrrolo[1,2-b][1,2,4]triazol-2-yl]-[rac-(3S)-3-methyltetrahydrofuran-3-yl]methanone]", "pKi": "> 8.30"},
      {"smiles": "O=C(c1nc2n(n1)[C@H](c1ccccc1)C[C@@H]2F)[C@@H]1C[C@@H]2CC[C@H]1O2", "note": "(racemic) [Example 139, [rac-(5S,7S)-7-fluoro-5-phenyl-6,7-dihydro-5H-pyrrolo[1,2-b][1,2,4]triazol-2-yl]-[rac-(1R,2R,4S)-7-oxabicyclo[2.2.1]heptan-2-yl]methanone]", "pKi": 6.85},
      {"smiles": "O=C(COC(F)(F)F)c1nc2n(n1)[C@H](c1ccccc1)C[C@@H]2F", "note": "(racemic) [Example 142, 1-[rac-(5S,7S)-7-fluoro-5-phenyl-6,7-dihydro-5H-pyrrolo[1,2-b][1,2,4]triazol-2-yl]-2-(trifluoromethoxy)ethanone]", "pKi": 8.05},
      {"smiles": "O=C(c1nc2n(n1)[C@H](c1ccccc1)C[C@@H]2F)[C@@]12COC[C@@H]1C2", "note": "(racemic) [Example 143, [rac-(5S,7S)-7-fluoro-5-phenyl-6,7-dihydro-5H-pyrrolo[1,2-b][1,2,4]triazol-2-yl]-[rac-(1R,5R)-3-oxabicyclo[3.1.0]hexan-1-yl]methanone]", "pKi": "> 8.30"},
      {"smiles": "O=C(c1nc2n(n1)[C@H](c1ccccc1)C[C@@H]2F)[C@]12COC[C@H]1C2", "note": "(racemic) [Example 144, [rac-(5S,7S)-7-fluoro-5-phenyl-6,7-dihydro-5H-pyrrolo[1,2-b][1,2,4]triazol-2-yl]-[rac-(1S,5S)-3-oxabicyclo[3.1.0]hexan-1-yl]methanone]", "pKi": 6.64},
      {"smiles": "O=C(c1nc2n(n1)[C@H](c1ccccc1)C[C@@H]2F)[C@H]1C[C@@H]1C(F)(F)F", "note": "(racemic) [Example 160, [rac-(5S,7S)-7-fluoro-5-phenyl-6,7-dihydro-5H-pyrrolo[1,2-b][1,2,4]triazol-2-yl]-[rac-(1S,2S)-2-(trifluoromethyl)cyclopropyl]methanone]", "pKi": 8.52},
      {"smiles": "O=C(c1nc2n(n1)[C@H](c1ccccc1)C[C@@H]2F)[C@@H]1C[C@H]1C(F)(F)F", "note": "(racemic) [Example 161, [rac-(5S,7S)-7-fluoro-5-phenyl-6,7-dihydro-5H-pyrrolo[1,2-b][1,2,4]triazol-2-yl]-[rac-(1R,2R)-2-(trifluoromethyl)cyclopropyl]methanone]", "pKi": 7.30},
      {"smiles": "O=C(c1nc2n(n1)[C@H](c1ccccc1)C[C@@H]2F)[C@H]1CC12CC2", "note": "(racemic) [Example 162, [rac-(5S,7S)-7-fluoro-5-phenyl-6,7-dihydro-5H-pyrrolo[1,2-b][1,2,4]triazol-2-yl]-[rac-(2S)-spiro[2.2]pentan-2-yl]methanone]", "pKi": 7.80},
      {"smiles": "O=C(c1nc2n(n1)[C@H](c1ccccc1)C[C@@H]2F)[C@@H]1CC12CC2", "note": "(racemic) [Example 163, [rac-(5S,7S)-7-fluoro-5-phenyl-6,7-dihydro-5H-pyrrolo[1,2-b][1,2,4]triazol-2-yl]-[rac-(2R)-spiro[2.2]pentan-2-yl]methanone]", "pKi": 8.40},
      {"smiles": "[2H][C@]1(F)C[C@@H](c2ccccc2)n2nc(C(=O)C3CC3)nc21", "note": "(single isomer, unassigned) [Example 103]", "pKi": 8.10},
      {"smiles": "[2H][C@H]1C[C@@H](c2ccccc2)n2nc(C(=O)C3CC3)nc21", "note": "(single isomer, unassigned) [Example 111]", "pKi": 8.09},
      {"smiles": "[2H]C1([2H])C[C@@H](c2ccccc2)n2nc(C(=O)C3CC3)nc21", "note": "(single isomer, unassigned) [Example 114]", "pKi": 7.74}
    ]},
    {"target": "human RIP1 kinase domain (2-375) (Homo sapiens (Human), UniProt Q13546)", "assay": "biochemical", "details": "tight-binding apparent inhibition constant (Ki app, Morrison equation), 50 nM enzyme, 50 μM ATP, 2 hours incubation", "values": [
      {"smiles": "O=C(c1nc2n(n1)[C@H](c1ccccc1)C[C@@H]2F)C1(F)CC1", "note": "(single isomer, unassigned) [Example 61]", "pKi": 9.52},
      {"smiles": "CC(C)(O)C(=O)c1nc2n(n1)[C@@H](c1ccccc1)C[C@H]2F", "note": "(stereo in doubt) [Example 5, 2-hydroxy-2-methyl-1-[rac-(5R,7R)-7-fluoro-5-phenyl-6,7-dihydro-5H-pyrrolo[1,2-b][1,2,4]triazol-2-yl]propan-1-one]", "pKi": 7.64},
      {"smiles": "O=C(c1nc2n(n1)[C@@H](c1ccccc1)C[C@H]2F)C1CC1", "note": "(stereo in doubt) [Example 35, cyclopropyl-[rac-(5R,7R)-7-fluoro-5-phenyl-6,7-dihydro-5H-pyrrolo[1,2-b][1,2,4]triazol-2-yl]methanone]", "pKi": "< 5.03"},
      {"smiles": "CC(C)(C)C(=O)c1nc2n(n1)[C@H](c1ccccc1)C[C@@H]2F", "note": "(stereo in doubt) [Example 37, 2,2-dimethyl-1-[rac-(5S,7S)-7-fluoro-5-phenyl-6,7-dihydro-5H-pyrrolo[1,2-b][1,2,4]triazol-2-yl]propan-1-one]", "pKi": 5.55}
    ]}
  ]
}
